For series [1], the system named is HCV RNA replicon ET (luc ubi neo/ET). The note with it: read-out: EC50 (effective concentration that reduced viral replication by 50%); HCV replicon ET line, LUC reporter, 72 hours. From the text:
Compounds were examined in the human hepatoma cell line ET (lub ubi neo/ET), a HCV RNA replicon containing a stable luciferase (LUC) reporter. The HCV RNA replicon ET contains the 5′ end of HCV (with the HCV Internal Ribosome Entry Site (IRES) and the first few amino acids of the HCV core protein) which drives the production of a firefly luciferase (LUC), ubiquitin, and neomycin phosphotransferase (NeoR) fusion protein. Ubiquitin cleavage releases the LUC and NeoR proteins. The EMCV IRES element controls the translation of the HCV […] proteins NS3-NS5. […] At the 3′ end of the replicon is the authentic 3′ NTR of HCV. The activity of the LUC reporter is directly proportional to HCV replication levels and positive-control antiviral compounds produce a reproducible antiviral response using the LUC endpoint.
The activity of the LUC reporter is directly proportional to HCV RNA levels in the human cell line.

The target in series [2] is cyclophilin A (Homo sapiens, UniProt P62937). The series can be described thus: Cyclophilin binding competitive ELISA, cyclophilin A. The note with it: human recombinant cyclophilin. The method, then:
(§1) The cyclophilin inhibition binding of compounds of the invention was determined using a competitive ELISA adapted from the methods described by Quesniaux et al. (Eur. J Immunol. 1987, Vol. 17, pages 1359-1365). Activated ester of succinyl spacers bound to D-Lys^8-cylosporine A (D-Lys^8-Cs) was coupled to bovine serum albumin (BSA) through D-lysyl residue in position 8. BSA was dissolved in 0.1 M borate buffer, pH 9.0 (4 mg in 1.4 ml). A hundredfold molar excess of D-Lys^8-Cs dissolved in dimethyl formamide (0.6 ml) was added dropwise to the BSA under vigorous stirring. […] After acetone precipitation of an aliquot of the conjugated protein, no covalently bound D-Lys^8-Cs remained in the acetone solution and the extent of cyclosporine covalent binding was calculated.
(§2) Microtiter Plates were coated with D-Lys^8-Cs-BSA conjugate ([…] in PBS for 24 hours at 4° C.). […] Cyclophilin was detected with anti-cyclophilin rabbit antiserum diluted in 1% BSA containing PBS and incubated overnight at 4° C. […] Bound rabbit antibodies were then detected by goat anti-rabbit IgG conjugated to alkaline phosphatase diluted in 1% BSA-PBS and allowed to incubate for 2 hours at 37° C. […] After incubation with 4-nitrophenyl phosphate (1 g/1 in diethanolamine buffer, pH 9.8) for 1 to 2 hours at 37° C., the enzymatic reaction was measured spectrophotometrically at 405 nm using a spectrophotometer.

Series [3] addresses cyclophilin B (Homo sapiens, UniProt P23284). In words: Cyclophilin binding competitive ELISA, cyclophilin B. The note with it: human recombinant cyclophilin. As for the experimental part:
as §1, §2

In series [4] the target is cyclophilin D (Homo sapiens, UniProt P30405). In words: Cyclophilin binding competitive ELISA, cyclophilin D. The note with it: human recombinant cyclophilin. As for the experimental part:
as §1, §2

In series [5] the test system is IL-2 in Jurkat cells. The series can be described thus: T cell stimulation (IL-2) in Jurkat cells with anti-CD3 and anti-CD28 co-stimulation. Format: cell-based. The note with it: 6 hours, Luminex 1-plex. As for the experimental part:
(§3) Compounds of the invention were tested for their T Cell stimulation (IL-2) in Jurkat cells with anti-CD3 and anti-CD28 co-stimulation. […] Cyclosporine A (control) was also run at a 0.5-Log 9-point titration, starting at 500 ng/mL. All compounds to be tested were dissolved in dimethyl sulfoxide. Cytotoxicity was evaluated with parallel Alamar Blue plates. Jurkat cells were seeded at 2×10^5 cells per well in 190 μL growth media in a 96-well plate, Cells were cultured in RPMI 1640 medium, 10% fetal bovine serum, and L-Glutamine with incubation at 37° C. with 5% carbon dioxide. After 1 hour of incubation the cells were stimulated with immobilized anti-CD3 (0.4m/well), anti-CD28 soluble (2 μg/mL). After 6 hours the sample supernatants were harvested and stored at −80° C. 50 μL samples of supernatant were tested for IL-2 using a Luminex® 1-plex assay.

Series [6] relates to Jurkat cells. The series can be described thus: Cytotoxicity in parallel Alamar Blue plates (Jurkat cells). In kind it is cell-based. The method, then: as §3
The subject of series [7] is mitochondrial permeability transition (MPT). The series can be described thus: Mitochondrial permeability transition: Ca2+-induced swelling of rat liver mitochondria. In kind it is biochemical. The note with it: swelling induced by 150 micromolar Ca2+, compound added 5 minutes before, read-out: EC50 (inhibition of mitochondrial swelling). The method, then:
Mitochondrial permeability transition (MPT) was determined by measuring swelling of the mitochondria induced by Ca^2+. The procedure was adapted from the method described by Blattner et al, Analytical Biochem, Volume 295, page 220 (2001). Mitochondria were prepared from rat livers, which had been perfused with phosphate-buffered saline (PBS) to remove blood, using standard methods that utilized gentle homogenization in sucrose based buffer and then differential centrifugation to first remove cellular debris and then to pellet the mitochondria. Swelling was induced by 150 micromolar Ca^2+ (added from a concentrated solution of calcium chloride) and was monitored by measuring the scattering at 535-540 nm. Representative compounds were added 5 minutes before swelling was induced. EC50 were determined by comparing swelling with and without the compounds of the invention.

This note sets out measurements from patent publication US20120010131A1, “NOVEL CYCLOSPORIN ANALOGUES” (Scynexis, Inc., priority 2009, published 2012).

Where only a bound is given, the exact number is not on record here.

Sequence of cyclophilin D (P30405 30-207): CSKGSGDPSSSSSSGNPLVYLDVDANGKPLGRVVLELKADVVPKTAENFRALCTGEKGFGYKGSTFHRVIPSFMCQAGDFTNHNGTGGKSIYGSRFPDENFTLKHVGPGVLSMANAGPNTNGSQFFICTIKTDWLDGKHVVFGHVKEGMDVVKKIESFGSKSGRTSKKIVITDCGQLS
Sequence of cyclophilin A (P62937 whole entry): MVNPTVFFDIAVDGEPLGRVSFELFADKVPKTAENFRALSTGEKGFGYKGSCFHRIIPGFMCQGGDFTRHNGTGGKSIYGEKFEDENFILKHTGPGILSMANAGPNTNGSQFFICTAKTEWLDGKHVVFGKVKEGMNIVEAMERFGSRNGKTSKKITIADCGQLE
Sequence of cyclophilin B (P23284 34-216): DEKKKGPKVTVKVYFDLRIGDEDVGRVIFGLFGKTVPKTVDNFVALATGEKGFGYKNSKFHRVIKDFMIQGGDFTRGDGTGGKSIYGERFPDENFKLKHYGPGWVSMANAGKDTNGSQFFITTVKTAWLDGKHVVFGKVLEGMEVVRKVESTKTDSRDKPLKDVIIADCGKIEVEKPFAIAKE

With `C/C=C/C[C@@H](C)[C@@H](O)[C@H]1C(=O)N[C@@H](CC)C(=O)N(C)CC(=O)N(C)[C@@H](CC(C)(C)OCc2ccccc2)C(=O)N[C@@H](C(C)C)C(=O)N(C)[C@@H](CC(C)C)C(=O)N[C@@H](C)C(=O)N[C@H](C)C(=O)N(C)[C@@H](CC(C)C)C(=O)N(C)[C@@H](CC(C)C)C(=O)N(C)[C@@H](C(C)C)C(=O)N1C` [Compound A, [4′-Benzyloxy-N-methylleucine]^4cyclosporine A], the EC50 is 410 nM in series [1] and less than 10000 nM in series [7]. Further, the “cyclophilin A binding value” in series [2] is listed as no more than 98 ng/mL. The “cyclophilin B binding value” in series [3] came to 102 ng/mL. Further, the “cyclophilin D binding value” in series [4] was 124 ng/mL. Further, the “IL-2 activity EC50” value in series [5] is 0.043 µg/mL. For the same compound, in series [6], the Cytotoxicity entry is reported as “absence of cytotoxicity”.
